Here are results for three compounds from patent publication US20220125878A1, “Compositions and Methods for Preventing the Interaction Between SARS-COV-2 and L-Sign” (priority 2020, published 2022).

One experiment deals with T1, human L-SIGN (Homo sapiens, UniProt Q9H2X3).
T1 construct: host or cells: HEK293T
T1 sequence (Q9H2X3 1-399): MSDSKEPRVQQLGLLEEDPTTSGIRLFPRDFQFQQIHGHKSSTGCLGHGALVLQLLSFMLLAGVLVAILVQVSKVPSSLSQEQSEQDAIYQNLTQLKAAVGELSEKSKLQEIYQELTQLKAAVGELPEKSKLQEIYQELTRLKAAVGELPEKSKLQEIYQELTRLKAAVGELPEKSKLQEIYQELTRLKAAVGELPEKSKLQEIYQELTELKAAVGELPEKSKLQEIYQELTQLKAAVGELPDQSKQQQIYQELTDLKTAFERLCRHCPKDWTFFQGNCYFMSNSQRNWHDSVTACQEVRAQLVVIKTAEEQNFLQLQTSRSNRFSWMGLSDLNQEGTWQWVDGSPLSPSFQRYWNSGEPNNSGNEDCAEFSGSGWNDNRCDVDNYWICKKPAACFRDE
The experiment is described as follows: Flow cytometry of Spike/Fc binding to L-SIGN-expressing HEK293T cells. Particulars: EGTA 1 mM.

The target in another experiment is T2, SARS-CoV-2 spike protein (Severe acute respiratory syndrome coronavirus 2, UniProt P0DTC2).
T2 construct: host or cells: HEK293T
It counts as binding.

The test system of experiment [1] is SARS-CoV-2-type pseudo-typed virus (CoV2-type). It counts as cell-based.
The subject of experiment [2] is VSVG-type pseudo-typed virus. It counts as cell-based.
Experiment [3] concerns high-mannose type N-glycans on spike protein-expressing HEK293T cells. The experiment is described as follows: Flow cytometry of GNL lectin binding to spike protein-expressing HEK293T cells. The conditions noted are these: spike protein-expressing HEK293T cells treated with kifunensine 10 μM, 48 h. It counts as cell-based. A general note: In flow cytometry, cells or beads pass a laser one at a time.

Consider `O=C(O)CN(CCOCCOCCN(CC(=O)O)CC(=O)O)CC(=O)O` [EGTA], for which the “blocking of the interaction of Spike/Fc with L-SIGN” value at human L-SIGN was “blocked”. The “inhibition of L-SIGN/Fc binding to spike protein-expressing HEK293T cells” value at SARS-CoV-2 spike protein was “inhibited”.
mannan: the “blocking of L-SIGN-mediated CoV2-type infection (% infection efficiency)” value in experiment [1] is “dose-dependently blocked”. Besides, the “blocking of control VSVG-type infection (% infection efficiency)” value in experiment [2] is given as “but not control VSVG-type infection”. Also, the “inhibition of L-SIGN/Fc binding to spike protein-expressing HEK293T cells” value on SARS-CoV-2 spike protein is given as “inhibited”.
Regarding `O=C1N[C@@H]2[C@@H](O)[C@@H](O)[C@H](O)[C@@H](CO)N2C1=O` [Kifunensine], the “effect of treatment on binding of spike protein to GNL” value in experiment [3] is “enhanced”. The “effect of treatment on binding of spike protein to L-SIGN/Fc” value on SARS-CoV-2 spike protein is “enhanced”.
